Measurements from patent US8063043B2, “Salts of N-[6-cis-2,6-dimethylmorpholin-4-yl)pyridine-3-yl]-2-methyl-4′-(trifluoromethoxy)[1,1′-biphenyl]-3-carboxamide” (Novartis AG, priority 2008, dated 2011).
Values joined by “and” are separate entries in the source; they are usually repeats but may differ in a detail not shown here. Equal entries are not always repeated. Where two headings read alike, the source gives them in different places.

Columns and labels:
[1] = Stability measured by degradation products (DP, HPLC area-%); type: physicochemical
Method: DPs are analyzed by HPLC (method see Table 3). They are calculated as area-% products. Compositions of the mixtures in mass % are as follows.
For salts in water, acetonitrile was added to dilute the 0.2% slurry to 0.1% clear solution. For salts in methanol, acetonitrile or acetonitrile/water (50:50, v/v), the corresponding solvent or solvent mixture was added to dilute the 0.2% slurry to 0.1% clear solution. For salts in 0.5% CMC, HPMC cellulose 4000 0.5%, or Tween 80, 0.8%, tetrahydrofuran and water were added to dilute the 2% slurry to 0.1% clear solution and to reach tetrahydrofuran/water 50:50 (v/v). For bulk stability samples (including the samples in excipient mixtures), acetonitrile/water (80:20, v/v) was added to make 0.1% clear solution.

[2] = Solid form after stress test (XRPD/DSC); type: physicochemical
[3] = Wistar rats, 10 mg/kg, suspension
[4] = Stability: appearance color (CL); type: physicochemical
[5] = Approximate solubility at 25° C.; conditions: thermodynamic from solid
in vivo = conditions: Wistar, rat, 10 mg/kg, Wistar rats, suspension
[6] = Hygroscopicity, DVS sorption/desorption isotherms; type: physicochemical; conditions: for DVS Desorp. Weight % chg. / DVS Sorp. Weight % chg.: 25° C.
Method: Sorption/desorption isotherms: Instrument, Surface Measurement System DVS-1 temperature at 25±0.5° C.

[7] = Crystal modification after 72 hours vibration (polymorphism behavior of slurries); type: physicochemical
From the text: The slurries were filtered and the solids collected for XRPD analyses.

[8] = Thermogravimetry (weight loss / loss on drying); type: physicochemical; conditions: at 150° C.
[9] = pH of 1% solution or suspension; type: physicochemical; conditions: In water
Method: The solutions were stirred continuously as the pH was measured.

[10] = Bulk corrosivity with stainless steel coupon; type: physicochemical; conditions: 2 day 80% r.h. with stainless steel coupon; change in the surface of the coupon
[11] = individual rats, listed as Compound A Sulfate, monosulfate salt

## Cc1c(C(=O)Nc2ccc(N3C[C@@H](C)O[C@@H](C)C3)nc2)cccc1-c1ccc(OC(F)(F)F)cc1.O=S(=O)(O)O [Sulfate, mono]
[1]; 0.2% solutions or suspensions, 2 week 50° C., Acetonitrile
  DP [%]: 0.44%
[1]; 0.2% solutions or suspensions, 2 week 50° C., Acetonitrile/Water (50:50)
  DP [%]: 0.80%
[1]; 0.2% solutions or suspensions, 2 week 50° C., Methanol
  DP [%]: 0.68%
[1]; 0.2% solutions or suspensions, 2 week 50° C., Water
  DP [%]: 0.41%
[1]; 2% (or 5%) solutions or suspensions, 1 day room temperature, 0.5% CMC
  DP [%]: 0.45%
[1]; 2% (or 5%) solutions or suspensions, 1 day room temperature, HPMC Cellulose 4000 0.5%
  DP [%]: 0.47%
[1]; 2% (or 5%) solutions or suspensions, 1 day room temperature, Tween 80, 0.8%
  DP [%]: 0.43%
[1]; 2 weeks 50° C., tight container, 1% in mixture 1 (Lactose/maize starch/Aerosil/Magnesiumstearate)
  DP [%]: 0.41%
[1]; 2 weeks 50° C., tight container, 1% in mixture 2 (Mannitol/Avicel PH 102/Cutina HR)
  DP [%]: 0.44%
[1]; 2 weeks 50° C./75% r.h., 1% in mixture 1
  DP [%]: 0.70%
[1]; 2 weeks 50° C./75% r.h., 1% in mixture 2
  DP [%]: 0.41%
[1]; Solid state, 2 week 50° C., tight container, Bulk (HPLC)
  DP [%]: 0.40%
[1]; Solid state, 2 week 50° C./75% r.h., Bulk (HPLC)
  DP [%]: 0.42%
[1]; Solid state, 2 week 80° C., tight container, Bulk (HPLC)
  DP [%]: 0.43%
[1]; Solid state, 2 week 80° C./75% r.h., Bulk (HPLC)
  DP [%]: 1.34%
[1]; Unstressed drug substance, bulk
  DP [%]: 0.42%
[1]; Xenon light (approx. 1200 kLuxh), Bulk (HPLC)
  DP [%]: 1.1%
[2]; Solid state, 2 week 50° C., tight container
  Bulk (XRPD): change: No
[2]; Solid state, 2 week 50° C./75% r.h., footnote: new peak in the XRPD pattern compared with unstressed diphosphate
  Bulk (XRPD): change: No
[2]; Solid state, 2 week 80° C., tight container
  Bulk (DSC): change: No
[2]; Solid state, 2 week 80° C./75% r.h., footnote: pattern similar to that of phosphate, with one extra peak
  Bulk (XRPD): change: No
[2]; Xenon light (approx. 1200 kLuxh)
  Bulk (XRPD): change: No
[3]
  less exposure in-vivo than the diphosphate salt: about 40%
[3]; [11]
  AUC0-24/dose: 2590 (ng*h/mL)/(mg/kg/day) and 2870 (ng*h/mL)/(mg/kg/day) and 3620 (ng*h/mL)/(mg/kg/day)
  Cmax: 1860 ng/mL and 3560 ng/mL
  Cmax/Dose: 190 (ng/mL)/(mg/kg/day) (2×) and 360 (ng/mL)/(mg/kg/day)
  tmax: 4 h and 2 h and 1 h
[4]; 0.2% solutions or suspensions, 2 week 50° C., Acetonitrile/Water (50:50), clear solution after stress test (*)
  CL: A *
[4]; 0.2% solutions or suspensions, 2 week 50° C., Acetonitrile, clear solution after stress test (*)
  CL: A *
[4]; 0.2% solutions or suspensions, 2 week 50° C., Methanol, clear solution after stress test (*)
  CL: A *
[4]; 0.2% solutions or suspensions, 2 week 50° C., Water, suspension (↓)
  CL: A ↓
[4]; 2% (or 5%) solutions or suspensions, 1 day room temperature, 0.5% CMC, suspension (↓)
  CL: A ↓
[4]; 2% (or 5%) solutions or suspensions, 1 day room temperature, HPMC Cellulose 4000 0.5%, suspension (↓)
  CL: A ↓
[4]; 2% (or 5%) solutions or suspensions, 1 day room temperature, Tween 80, 0.8%, suspension (↓)
  CL: A ↓
[5]; 0.1N HCl, pH 1, simulated gastric fluid
  solubility at 1 day: 3 µg/mL
[5]; 2-propanol, organic solvent or mixture
  solubility at 1 day: 4000 µg/mL
[5]; acetone, organic solvent or mixture
  solubility at 1 day: 1700 µg/mL
[5]; acetonitrile, organic solvent or mixture
  solubility at 1 day: 1400 µg/mL
[5]; ethanol, organic solvent or mixture
  solubility at 1 day: 19700 µg/mL
[5]; ethyl acetate, organic solvent or mixture
  solubility at 1 day: 90 µg/mL
[5]; methanol, organic solvent or mixture
  solubility at 1 day: 24400 µg/mL
[5]; phosphate buffer, pH 6.8, aqueous buffer
  solubility at 1 day: 2 µg/mL
[5]; water
  solubility at 1 day: 7 µg/mL
In vivo; Cmax, individual rats
  Cmax: 1900 ng/mL
In vivo; mean tmax
  tmax: 2.3 h
[6]
  XRPD after DVS test: No change
[6]; RH 0.0%
  DVS Desorp. Weight % chg.: 1.007%
  DVS Sorp. Weight % chg.: 0.000%
[6]; RH 25.0%
  DVS Desorp. Weight % chg.: 1.256%
  DVS Sorp. Weight % chg.: 1.232%
[6]; RH 50.0%
  DVS Desorp. Weight % chg.: 1.495%
  DVS Sorp. Weight % chg.: 1.455%
[6]; RH 75.0%
  DVS Desorp. Weight % chg.: 1.716%
  DVS Sorp. Weight % chg.: 1.634%
[6]; RH 95.0%
  DVS Desorp. Weight % chg.: 2.330%
  DVS Sorp. Weight % chg.: 2.330%
[7]; 0.1N HCl solution
  Crystal modification after 72 hours vibration (DSC/XRPD/TG): XRPD pattern
[7]; Acetonitrile, N—no, Y—yes
  Crystal modification after 72 hours vibration (DSC/XRPD/TG): N, no form change
[7]; Ethanol, N—no, Y—yes
  Crystal modification after 72 hours vibration (DSC/XRPD/TG): N, no form change
[7]; Ethyl acetate, N—no, Y—yes
  Crystal modification after 72 hours vibration (DSC/XRPD/TG): N, no form change
[7]; Iso Propanol, N—no, Y—yes
  Crystal modification after 72 hours vibration (DSC/XRPD/TG): N, no form change
[7]; Water
  Crystal modification after 72 hours vibration (DSC/XRPD/TG): Dissociated to free
  Final pH of slurry: Final pH 1.26
[7]; pH 3 buffer
  Crystal modification after 72 hours vibration (DSC/XRPD/TG): Dissociated to free
  Final pH of slurry: Final pH 2.00
[7]; pH 6.8 buffer
  Crystal modification after 72 hours vibration (DSC/XRPD/TG): Dissociated to free
  Final pH of slurry: Final pH 1.82
[8]; Heating rate 10° C./min
  Thermogravimetry (weight loss in %): 1.89% at 150 °C
[8]; Hygroscopicity, as is
  Loss on drying by TGA (%): 1.89 at 150 °C %
[9]
  pH of 1% solution or suspension: 1.45
[10]
  Bulk corrosivity: No visible change
